This note sets out measurements from patent US20090117593A1, “T. Cruzi-derived neurotrophic agents and methods of use therefor” (Tufts University, priority 2006, published 2009).

Assay type in all cases: cell-based
In test [1] the test system is PC12 cells. The note with it: serum-free RPMI/0.2% BSA, collagen coated dishes, 16-17 hours.
In test [2] the test system is PC12 cells or Schwann cells. Nature of the test: Inhibition of apoptosis of PC12 cells or Schwann cells by synthetic peptides.
In test [3] the test system is PC12^TrkA cells. Nature of the test: Survival of PC12^TrkA cells in serum-free medium (MTT, DAPI). As to conditions: peptides 10 μM, PDNF 500 ng/ml, NGF 30 ng/ml; 48 hours to 5 days. How it is done:
(§1) PC12^nnr5 and PC12^TrkA cells were grown in RPMI with 10% FCS and 5% horse serum as described earlier (Green et al., J. Cell Biol. 102:830-843 (1986); Chuenkova and Pereira, Mol. Biol. Cell 11: 1487-1498 (2000)). Two approaches were used to study neurite extension: 1) Plating cells (1×10^5 cells/ml) on plastic wells (LABTECH 16-well slides, Nalge Nunc International, Naperville, Ill.) coated with synthetic peptides (100 μg/ml water, 4° C., overnight) or rat tail collagen (1 mg/ml PBS, 4° C., overnight). 2) Adding peptides in solution to cells plated on uncoated substratum. Cells were grown in 1% FCS-containing RPMI for 72 hours, and reacted with 0.5 mg/ml MTT (3-[4,5-dimethylthiazol-2-yl]-2,5-diphenyltetrazolium bromide) (SIGMA, St. Louis, Mo.) in serum-free medium for 1 hour at 37° C. Light microscopy was used to visualize viable cells (i.e., containing reduced insoluble formazan) with or without extended neurites (>5 μm in length). Cell viability was also determined using the CELLTITER 96 assay (Promega, Madison, Wis.) as follows: Cells, plated at 2×10^5/ml, were treated with peptides in serum-free medium for different times and exposed to CELLTITER 96 Aqueous One Solution for 1 hour at 37° C. 2) Apoptotic cells were identified by staining with DAPI (250 ng/ml) (SIGMA) 48 hours after cells were exposed to serum-free medium with or without additives in solution, as described earlier (Chuenkova and Pereira, Mol. Biol. Cell 11:1487-1498 (2000)). […]

Test [4] concerns PC12^TrkA cells. The experiment in a line: Neurite extension of PC12^TrkA cells. As to conditions: coated substratum or in medium (10 μM), 1% FCS. On the procedure: as §1, with “C.” for “C. 2) Apoptotic cells were identified by staining with DAPI (250 ng/ml) (SIGMA) 48 hours after cells were exposed to serum-free medium with or without additives in solution, as described earlier (Chuenkova and Pereira, Mol. Biol. Cell 11:1487-1498 (2000)).”

For test [5], the system named is Erk1/2. Nature of the test: Erk1/2 phosphorylation in PC12 cells. The note with it: 5 minutes; control peptides 10 μM. On the procedure:
Activation state of TrkA, Erk1/2 and Akt kinases and transcription factor CREB was analyzed by assessing phosphorylation by Western blot with appropriate phospho-specific antibodies. For this, cells were plated in complete medium at a density of 3×10^5 cells/ml overnight on 6-well plates (BECTON DICKINSON LABWARE, Franklin Lakes, N.J.). The medium was changed to serum-free medium and the cells cultured for an additional 24 hours to reduce background phosphorylation. […] Antibody reaction was visualized by horseradish peroxidase (HRP)-conjugated secondary antibody and enhanced chemiluminescence kit (ECL). Some blots were stripped in appropriate buffer (50 mM Tris HCl, pH 7.8, 2% SDS, 1% β-mercaptoethanol) at 50° C. for 60 minutes and re-probed with p42/44MAPK, Akt or CREB antibody to ensure equal loading of proteins. For immunoprecipitation experiments, cell lysates were pre-adsorbed on protein G-Sepharose for 1 hour at 4° C. and after brief centrifugation supernatants were incubated with anti-TrkA antibody for 24 hours at 4° C. with gentle rocking. Formed immunocomplexes were captured on protein G-Sepharose, eluted with SDS-PAGE sample buffer and analyzed by immunoblotting with antibody against phospho-TrkA receptor.

The test system of test [6] is neuroblastoma N18 cells. The experiment in a line: Neurite outgrowth assay in N18 cells. The note with it: soluble or immobilized on plastic (500 μg/ml coating), 17 hours. On the procedure: 96-well microtiter plates were coated overnight at 4° C. with the TS or peptides or fragments thereof, or with control proteins laminin (Ln) or bovine serum albumin (BSA) at 500 μg/ml. After removing the compounds, the plates were further incubated with 1% BSA for 1 hour at room temperature and immediately used as substratum for PC12 or N18 (Prasad, K., Biol. Rev. Camb. Philos. Soc., 66:431-451 (1991)) cells in serum-free RPMI/0.2% BSA. Neurite outgrowth was measured using a phase-contrast microscope 17 hours later.

Entries after “also recorded” stand apart in the source; their conditions may differ.

DSSAHGTPSTPA [peptide TR]: in test [1], the “neurite outgrowth in PC12 cells” value is “did not induce neurite outgrowth; also recorded: did not promote neurite outgrowth”. Besides, the “suppression of apoptosis of PC12 cells or Schwann cells” value in test [2] is on record as “did not inhibit apoptosis”. Moreover, in test [3], the “survival of PC12^TrkA cells in serum-free medium” value is “inactive; also recorded: did not significantly promoted cell survival; also recorded: did not support survival and neurite extension”. In test [4], the “neurite extension / differentiation of PC12^TrkA cells” value is “did not spread and extend neurites; also recorded: did not support survival and neurite extension”. Also, the “Erk1/2 phosphorylation in PC12 cells” value in test [5] was “did not activate Erk”.
As to laminin [reference compound], the “neurite outgrowth in N18 cells” value in test [6] is listed as “induced”.
